Source: the supplement of paper PMC11962398

Columns and labels:
BI-2493 [1] = compound: T1, C[C@H]1CNCCN1c1nccc(-c2noc3c2CCC[C@@]32CCCc3sc(N)c(C#N)c32)n1 [BI-2493]; conditions: 5 days
Procedure: (§1)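 PRISM pooled barcoded cancer cell line viability screen (Broad Institute) with BI-2493 at 8 doses in threefold dilutions from 0.00457 to 10 µmol/L, 5-day treatment; curves fitted per cell line. IC50 is undefined (placeholder) for resistant lines. AUC is capped at 1, and sensitivity is reported as 1 − AUC.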

BI-2493 [2] = compound: T1, BI-2493; assay: 1 - AUC of viability dose-response curve (sensitivity) (fraction); higher = more sensitive; conditions: 5 days
Procedure: as §1

| Test System | IC50 of cell viability (BI-2493 [1]) [µM] | 1 - AUC of viability dose-response curve (BI-2493 [2]) |
| --- | --- | --- |
| SW620_LARGE_INTESTINE | 1.1 | 0.313 |
| SW626_LARGE_INTESTINE | 4.08 | 0.124 |
| SW756_CERVIX | 5.46 | 0.14 |
| SW780_URINARY_TRACT | 3.46 | 0.22 |
| SW837_LARGE_INTESTINE | 5.95 | 0.0901 |
| SW900_LUNG | 8.99 | 0.115 |
| SW948_LARGE_INTESTINE | 7.49 | 0.167 |
| SW954_CERVIX | 3.72 | 0.117 |
| SW1088_CENTRAL_NERVOUS_SYSTEM | 8.8 | 0.159 |
| SW1116_LARGE_INTESTINE | 2.37 | 0.214 |
| SW1353_BONE | > 10 | 0.032 |
| SW1463_LARGE_INTESTINE | 4.74 | 0.177 |
| SW1573_LUNG | 7.72 | 0.108 |
| SW1710_URINARY_TRACT | 7.21 | 0.0685 |
| SW1783_CENTRAL_NERVOUS_SYSTEM | 7.49 | 0.0474 |
| SW1990_PANCREAS | 0.926 | 0.324 |
| T3M5_THYROID | 4.56 | 0.162 |
| T3M10_LUNG | 5.96 | 0.0884 |
| T24_URINARY_TRACT | > 10 | 0.047 |
| T47D_BREAST | 4.07 | 0.0937 |
| TALL1_HAEMATOPOIETIC_AND_LYMPHOID_TISSUE | 6.69 | 0.0755 |
| TANOUE_HAEMATOPOIETIC_AND_LYMPHOID_TISSUE | 9.36 | 0.0128 |
| TASK1_CENTRAL_NERVOUS_SYSTEM | 7.76 | 0.0438 |
| TC32_BONE | 8.86 | 0.0484 |

| Test System | IC50 of cell viability (BI-2493 [1]) [µM] | 1 - AUC of viability dose-response curve (BI-2493 [2]) |
| --- | --- | --- |
| TC71_BONE | 9.44 | 0.0115 |
| TC106_BONE | 5.11 | 0.108 |
| TC205_BONE | > 10 | 0.082 |
| TCCPAN2_PANCREAS | 8.86 | 0.0795 |
| TCCSUP_URINARY_TRACT | 9.48 | 0.0247 |
| TE1_OESOPHAGUS | 9.58 | 0.0344 |
| TE4_OESOPHAGUS | 4.83 | 0.0912 |
| TE5_OESOPHAGUS | 9.08 | 0.0423 |
| TE6_OESOPHAGUS | 4.43 | 0.0969 |
| TE8_OESOPHAGUS | > 10 | 0.0526 |
| TE9_OESOPHAGUS | 5.83 | 0.107 |
| TE10_OESOPHAGUS | > 10 | 0.146 |
| TE11_OESOPHAGUS | 4.31 | 0.102 |
| TE14_OESOPHAGUS | 9.66 | 0.00721 |
| TE15_OESOPHAGUS | 0.153 | 0.381 |
| TE617T_SOFT_TISSUE | 3.75 | 0.193 |
| TEN_ENDOMETRIUM | 9.58 | 0.00891 |
| TF1_HAEMATOPOIETIC_AND_LYMPHOID_TISSUE | 0.352 | 0.427 |
| TFK1_BILIARY_TRACT | 2.89 | 0.173 |
| TGBC1TKB_BILIARY_TRACT | 7.28 | 0.0559 |
| TGBC18TKB_LARGE_INTESTINE | 9.22 | 0.103 |
| TGBC52TKB_BILIARY_TRACT | 1.47 | 0.255 |
| TGW_AUTONOMIC_GANGLIA | 4.67 | 0.123 |
